Laboratory results taken from paper PMC12271471, “Direct synthesis of mycophenolic acid aryl esters with antioxidant and antiproliferative properties” (Scientific Reports, 2025).

Tests used:
[1] = DPPH radical scavenging test (colorimetric); conditions: concentration scavenging 50% of DPPH radicals; 10 min, room temperature, 517 nm; mean ± SD
Experimental: Antioxidative properties of the obtained MPA derivatives were assessed chemically using a colorimetric DPPH test. The IC50 value represents the scavenging activity, defined as the concentration of a compound required to scavenge 50% of DPPH radicals.
Briefly, 400 µL solution of each synthesized compound with different concentrations (20–1000 µg/mL) was added to 1.6 mL DPPH solution (100 µmol/L). After shaking, the mixture was incubated at room temperature in the dark for 10 min, and then the absorbance was measured at 517 nm. The %Scavenging activity was calculated by using the formula: […]
The scavenging activity was expressed as IC50 value, defined as the concentration (mM) of compound required for scavenging DPPH radicals by 50%. IC50 values were determined by linear regression analysis using at least three different concentrations in duplicate.
Three different concentrations were prepared for each sample, while each one was analyzed in duplicate. […] The statistical analysis was performed using Tukey’s HSD test (p < 0.05). The statistical software Statistica 10 software (StatSoft Inc., Tulsa, OK, USA) was implemented for this analysis.

T-Jurkat cells [2] = test: VPD450 proliferation test (flow cytometry) on T-Jurkat cells; assay type: cell-based, human; conditions: for EC50: Homo sapiens, T-Jurkat, 48 h, mean ± SD; for IS internal selectivity (EC50 PBMCs / EC50 T-Jurkat): ratio between VPD450 EC50 values for PBMCs and T-Jurkat cell line
Experimental: (§1) These values indicate the concentration of any compound at which proliferation of PBMCs (healthy cells), and T-Jurkat cells (T-cell leukemia), is inhibited by 50% compared to the control. Cells were treated with the compounds for 72 h (PBMCs) or 48 h (T-Jurkat), followed by a […] VPD450 test. The results are presented in ESI Fig. S3 as proliferation curves concerning concentration.
(§2) ESI Figure 3. Concentration-dependent change in proliferation under the treatment of ester derivatives of MPA. (A) VPD450-labelled PBMCs were cultured in the presence of different concentrations (100; 50; 25; 10; 1; 0.1, and 0.01 μM) of MPA, MMF, and ester derivatives, and stimulated with magnetic beads coated with anti-CD3 and anti-CD28 antibodies for 72 hours. (B) VPD450-labelled T-Jurkat cells were cultured in the presence of different concentrations (100; 10; 1; 0.1 and 0.01 μM) of MPA and ester derivatives for 48 hours. The plots were separated based on the type of ester derivative (P or MP). Cell proliferation was analyzed using flow cytometry. The results are expressed […]
(§3) (1 picture or pasted object on this page, not shown here) […]
(§4) inhibited cell viability by more than 50%. Each experiment was conducted in triplicate, and the final […]
(§5) VPD450 dye-based in vitro cell proliferation test
(§6) PBMCs and T-Jurkat cells were washed twice with warm PBS (37°C), re-suspended in fresh PBS at a final concentration of 10-30∙10^6 cells/ml, and labelled with 1 µl of VPD450 (BD Biosciences) at 37°C for 15 minutes, with vortexing every 5 minutes to ensure uniform staining. Subsequently, cells were washed with PBS, then with the complete medium (X-VIVO20 for PBMCs and RPMI-1640 for T-Jurkat cells), next re-suspended in fresh complete medium and seeded into 96-well plates at a concentration of 1∙10^6 cells per well. PBMCs were additionally stimulated with magnetic beads coated with anti-CD3 and anti-CD28 antibodies (Invitrogen) at a 2:1 cell-to-bead ratio. To the experimental wells, 100 µl of the MPA derivatives were added to achieve final concentrations of 50, 25, 10, 5, 1, 0.1, and 0.01 µM. In parallel, control wells containing stained but unstimulated cells and stained, stimulated cells were prepared at the same concentration. Cell proliferation was analyzed using an LSRFortessa flow cytometer (BD Biosciences) and Kaluza C Flow Cytometry Analysis Software (Beckman Coulter). […]
(§7) Statistical analysis was conducted using GraphPad Prism 9 (GraphPad Software Inc).
(§8) Differences between MMF, MPA and its new derivatives were assessed using a two-tailed unpaired Student’s t-test, with statistical significance defined as p < 0.05. EC50 and IC50 values were determined by fitting data to a four-parameter non-linear regression model in GraphPad Prism 9. Statistical significance was evaluated using the t-test.

PBMCs [3] = test: XTT cytotoxicity test on PBMCs; assay type: cell-based; conditions: Homo sapiens, PBMC, 72 h (ESI: 96 h), viability, mean ± SD, read-out: Relative IC50 PBMCs (XTT)
Experimental: (§9) Table 3 presents the IC50 values obtained from the XTT test on PBMCs and the T-Jurkat cell line, using MPA and MMF as standards. These values indicate the concentration of each compound required to reduce the viability of PBMCs (healthy cells) and T-Jurkat cells (T-cell leukemia) by 50% compared to the control. Cells were treated with compounds for 72 h (PBMCs) or 48 h (T-Jurkat), followed by a colorimetric XTT test. The results are illustrated in ESI Fig. S2 as a viability curve in relation to concentration.
Biological evaluation — PBMC and T-Jurkat cells […]
(§10) Human peripheral blood mononuclear cells (PBMCs) were isolated from buffy coats provided by anonymous, healthy volunteers with an average age of 35±4 years during routine transfusion procedure. These samples were received by the Authors from the Regional Centre for Blood Donation and Treatment in Gdańsk (Poland). […]
(§11) solely for PBMCs isolation. PBMCs were suspended in a complete X-VIVO medium, consisting of X-VIVO20, 10% heat-inactivated human AB serum, penicillin (100 U/ml), and streptomycin ([…]).
(§12) MPA derivatives preparation
(§13) To achieve the desired concentrations of the tested compounds, the substances were first dissolved in DMSO to reach a final concentration of 0.01 M. The solutions were then diluted in the appropriate additive-free medium (RPMI-1640 for T-Jurkat cells and X-VIVO20 for PBMCs) to obtain […]
(§14) Peripheral blood mononuclear cells were isolated by gradient centrifugation, as described previously. Buffy coats were diluted with phosphate-buffered saline (PBS, pH = 7.4, ThermoFisher Scientific) in a 1:1 ratio, layered at Ficoll-Paque™ PLUS (VWR International), and centrifuged at 800 × g for 20 minutes. The PBMC layer was collected and washed twice with PBS (1st wash: 600 × g for 10 minutes; 2nd wash: 600 × g for 5 minutes). Cell amount and viability were assessed using the Bio-Rad TC20™ automated cell counter combined with trypan blue staining.
(§15) XTT dye-based in vitro cytotoxicity test
(§16) The cytotoxic effects of mycophenolic acid (MPA) derivatives were assessed using an in vitro XTT-based assay (Roche). PBMCs in complete X-VIVO20 medium and T-Jurkat cells in complete RPMI-1640 medium were seeded into 96-well plates at a concentration of 5∙10^5 cells/50 µl per well. 50 µl of tested compounds were added to the experimental wells to achieve final concentrations of 50, 25, 10, 5, 1, 0.1, and 0.01 µM. The background control consisted of the medium without cells, while untreated cells served as the positive control. After incubating for 48 hours for T-Jurkat cells and 96 hours for PBMCs in a humidified atmosphere with 5% CO2 at 37°C, 50 µl of freshly prepared XTT reagent was added to all wells according to the manufacturer's instructions. The plates were then incubated for an additional 24 hours under the same conditions. The conversion of the water-soluble yellow XTT tetrazolium salt to orange formazan was quantified by measuring the optical density (OD) at 450 nm using an Agilent BioTek Epoch Microplate Spectrophotometer (Agilent Technologies), with a reference wavelength of 690 nm. The results were expressed as IC50 values for compounds that […]
(§17) inhibited cell viability by more than 50%. […]
PBMCs were suspended in a 15 mL centrifuge tube at a concentration of 10-30 × 10⁶ cells in 1 mL of PBS, then, 2 μL of 1 mM VPD 450 dye solution was added, incubated for 15 min at 37°C, washed with a 9-fold volume of warm PBS and centrifuged at 400 x g for 5 min. Then, the cells were suspended in 10 mL of X-VIVO medium with 10% FBS and centrifuged again at 400 x g for 5 min. After suspending the cells in the complete medium, the staining level was checked using flow cytometry. The cells thus obtained were stimulated with anti-CD3/anti-CD28 antibodies as described previously (see VPD450 dye-based in vitro cell proliferation test). To perform the GMP test, a proper amount of GMP was added to each well to reach its final concentration of 50 μM, and then incubated for 72 hours. Proliferative […]

PBMCs [4] = test: VPD450 proliferation test (flow cytometry) on PBMCs; assay type: cell-based, human; conditions: for EC50: Homo sapiens, PBMC, PBMCs stimulated with anti-CD3/anti-CD28 beads, 72 h, mean ± SD; for SI selectivity index PBMCs (IC50/EC50): ratio between IC50 (XTT) and EC50 (VPD450) on PBMCs
Experimental: as §1, §2, §3, §4, §5, §6, §7, §8

T-Jurkat cells [5] = test: XTT cytotoxicity test on T-Jurkat cell line; assay type: cell-based, human
Experimental: as §9
Biological evaluation — PBMC and T-Jurkat cells
The T-Jurkat cell line (Clone E6-1, ATCC TIB-152), derived from a human acute T-cell leukemia, was obtained from the cell bank of the Department of Medical Immunology at the Medical University of Gdańsk. Before experimentation, the cells were thawed and cultured for about 7 days to reach the logarithmic phase of growth. The T-Jurkat cell line was suspended in a complete RPMI medium, which included RPMI-1640, 10% FBS, penicillin (100 U/ml), and streptomycin ([…]).
as §10, §11, §12, §13, §14, §15, §16, §17
PBMCs were suspended in a 15 mL centrifuge tube at a concentration of 10-30 × 10⁶ cells in 1 mL of PBS, then, 2 μL of 1 mM VPD 450 dye solution was added, incubated for 15 min at 37°C, washed with a 9-fold volume of warm PBS and centrifuged at 400 x g for 5 min. Then, the cells were suspended […]

Row | SMILES | IC50 [1] [µM] | EC50 (T-Jurkat cells [2]) [µM] | IS internal selectivity (EC50 PBMCs / EC50 T-Jurkat) (T-Jurkat cells [2]) | SI selectivity index T-Jurkat (IC50/EC50) (T-Jurkat cells [2]; ratio between IC50 (XTT) and EC50 (VPD450) on T-Jurkat cell line) | IC50 (PBMCs [3]) [µM] | EC50 (PBMCs [4]) [µM] | SI selectivity index PBMCs (IC50/EC50) (PBMCs [4]) | IC50 (T-Jurkat cells [5]; Homo sapiens, T-Jurkat, 48 h, viability, mean ± SD, read-out: Relative IC50 T-Jurkat (XTT)) [µM] | IS internal selectivity (IC50 PBMCs / IC50 T-Jurkat) (T-Jurkat cells [5]; ratio between XTT IC50 values for PBMCs and T-Jurkat cell line)
1 | O=C1O[C@H]([C@@H](O)CO)C(O)=C1O [Ascorbic acid, reference compound] | 545 | – | – | – | – | – | – | – | –
2 | Cc1c(C)c2c(c(C)c1O)CCC(C)(C(=O)O)O2 (stereo not drawn) [Trolox, reference compound] | 8 | – | – | – | – | – | – | – | –

Further lines, with some results ahead:

Row | IC50 [1] [µM] | EC50 (T-Jurkat cells [2]) [µM] | IS internal selectivity (EC50 PBMCs / EC50 T-Jurkat) (T-Jurkat cells [2]) | SMILES | SI selectivity index T-Jurkat (IC50/EC50) (T-Jurkat cells [2]; ratio between IC50 (XTT) and EC50 (VPD450) on T-Jurkat cell line) | IC50 (PBMCs [3]) [µM] | EC50 (PBMCs [4]) [µM] | SI selectivity index PBMCs (IC50/EC50) (PBMCs [4]) | IC50 (T-Jurkat cells [5]; Homo sapiens, T-Jurkat, 48 h, viability, mean ± SD, read-out: Relative IC50 T-Jurkat (XTT)) [µM] | IS internal selectivity (IC50 PBMCs / IC50 T-Jurkat) (T-Jurkat cells [5]; ratio between XTT IC50 values for PBMCs and T-Jurkat cell line)
3 | – | 1.08 ± 0.036 | 10.542 | COc1cc(/C=C/C(C)=O)ccc1OC(=O)CC/C(C)=C/Cc1c(O)c2c(c(C)c1OC)COC2=O [MP5] | 2.149 | 30.698 ± 0.024 | 11.406 ± 0.003 | 2.691 | 2.325 ± 0.004 | 13.203
4 | 14900 ± 340 | 0.662 ± 0.031 | 1.755 | COc1cc(CCC(C)=O)ccc1OC(=O)CC/C(C)=C/Cc1c(O)c2c(c(C)c1OC)COC2=O [MP6] | – | 14.71 ± 0.045 | 1.162 ± 0.003 | 12.664 | – | –
5 | 20100 ± 258 | 1.34 ± 0.035 | – | C=C[C@@](C)(/C=C/c1ccc(OC(=O)CC/C(C)=C/Cc2c(O)c3c(c(C)c2OC)COC3=O)cc1)CCC=C(C)C [P3] | – | 14.117 ± 0.007 | 1.052 ± 0.004 | 13.419 | – | –
6 | 35800 ± 403 | 2.84 ± 0.033 | 0.780 | COc1c(C)c2c(c(O)c1C/C=C(\C)CCC(=O)Oc1ccc(/C=C/C(C)=O)cc1)C(=O)OC2 [P6] | – | 8.836 ± 0.02 | 2.215 ± 0.004 | 3.989 | – | –
